“And” between values parts separate entries of the source, which are not always exact repeats. Equal values may be shown once.
Columns and labels:
[1] = biological target: PIK3CA (human) (UniProt P42336); experiment: Inhibition of PIK3CA Kinase Activity
[2] = biological target: PIK3CG (human) (UniProt P48736); experiment: Inhibition of PIK3CG Kinase Activity
[3] = biological target: PIK3CB (Human) (UniProt P42338); experiment: Inhibition of PIK3CB Kinase Activity
[4] = biological target: PIK3CD (Human) (UniProt O00329); experiment: Inhibition of PIK3CD Kinase Activity
Chain of PIK3CD (Human) (O00329 whole entry, looked up): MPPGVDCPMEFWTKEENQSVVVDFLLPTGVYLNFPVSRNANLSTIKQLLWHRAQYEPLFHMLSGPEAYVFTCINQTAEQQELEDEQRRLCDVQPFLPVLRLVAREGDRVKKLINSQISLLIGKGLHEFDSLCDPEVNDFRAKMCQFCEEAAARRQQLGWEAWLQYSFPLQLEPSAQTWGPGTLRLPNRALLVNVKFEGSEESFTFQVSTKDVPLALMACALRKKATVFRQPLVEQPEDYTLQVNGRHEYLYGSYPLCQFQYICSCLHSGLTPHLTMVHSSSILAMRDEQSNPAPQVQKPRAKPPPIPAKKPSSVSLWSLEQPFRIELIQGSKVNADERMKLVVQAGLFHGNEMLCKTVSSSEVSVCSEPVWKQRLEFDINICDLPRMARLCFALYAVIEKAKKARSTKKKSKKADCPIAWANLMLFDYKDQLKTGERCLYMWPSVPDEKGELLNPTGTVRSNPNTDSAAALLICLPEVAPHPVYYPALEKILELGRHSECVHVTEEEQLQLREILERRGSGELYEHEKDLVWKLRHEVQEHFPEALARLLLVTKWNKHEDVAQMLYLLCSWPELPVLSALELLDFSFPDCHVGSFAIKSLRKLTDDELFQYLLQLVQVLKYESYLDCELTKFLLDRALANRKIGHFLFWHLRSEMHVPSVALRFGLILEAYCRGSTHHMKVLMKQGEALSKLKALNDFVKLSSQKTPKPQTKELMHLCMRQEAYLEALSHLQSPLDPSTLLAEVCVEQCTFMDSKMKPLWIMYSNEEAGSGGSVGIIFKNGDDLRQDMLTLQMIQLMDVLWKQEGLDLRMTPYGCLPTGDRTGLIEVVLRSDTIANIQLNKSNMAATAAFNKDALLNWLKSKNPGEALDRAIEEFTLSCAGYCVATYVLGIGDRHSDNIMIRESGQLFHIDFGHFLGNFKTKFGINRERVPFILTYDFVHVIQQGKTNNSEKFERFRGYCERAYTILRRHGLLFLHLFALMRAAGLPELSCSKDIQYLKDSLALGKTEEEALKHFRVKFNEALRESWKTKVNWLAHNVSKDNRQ

Chain of PIK3CA (human) (P42336 whole entry, looked up): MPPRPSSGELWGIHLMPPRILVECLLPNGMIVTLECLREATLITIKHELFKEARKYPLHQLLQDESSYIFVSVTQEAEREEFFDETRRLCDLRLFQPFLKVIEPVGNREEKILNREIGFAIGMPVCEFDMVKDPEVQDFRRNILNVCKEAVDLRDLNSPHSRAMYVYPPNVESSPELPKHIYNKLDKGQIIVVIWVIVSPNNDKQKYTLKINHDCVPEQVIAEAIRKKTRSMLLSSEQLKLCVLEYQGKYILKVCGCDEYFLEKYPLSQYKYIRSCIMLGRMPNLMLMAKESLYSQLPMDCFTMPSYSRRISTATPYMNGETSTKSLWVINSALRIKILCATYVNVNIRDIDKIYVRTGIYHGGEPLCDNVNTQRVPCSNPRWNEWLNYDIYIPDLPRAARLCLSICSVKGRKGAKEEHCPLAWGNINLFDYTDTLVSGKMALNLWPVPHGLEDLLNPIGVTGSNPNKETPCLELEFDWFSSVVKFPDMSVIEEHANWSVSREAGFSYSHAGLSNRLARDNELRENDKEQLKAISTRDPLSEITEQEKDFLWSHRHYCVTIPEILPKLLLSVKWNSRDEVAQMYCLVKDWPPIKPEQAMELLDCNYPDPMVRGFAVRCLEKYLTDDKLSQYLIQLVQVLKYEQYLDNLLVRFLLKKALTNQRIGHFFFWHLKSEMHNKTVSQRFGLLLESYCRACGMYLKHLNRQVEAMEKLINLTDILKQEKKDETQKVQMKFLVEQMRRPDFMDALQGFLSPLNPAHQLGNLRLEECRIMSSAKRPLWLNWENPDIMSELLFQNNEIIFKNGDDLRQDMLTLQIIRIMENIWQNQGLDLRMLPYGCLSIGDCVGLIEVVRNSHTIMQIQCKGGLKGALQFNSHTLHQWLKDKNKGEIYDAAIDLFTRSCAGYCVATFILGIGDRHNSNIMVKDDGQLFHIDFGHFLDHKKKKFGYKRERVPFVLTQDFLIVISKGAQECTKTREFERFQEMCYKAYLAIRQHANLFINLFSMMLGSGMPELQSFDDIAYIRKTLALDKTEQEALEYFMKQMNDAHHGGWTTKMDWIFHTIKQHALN
Chain of PIK3CG (human) (P48736 whole entry, looked up): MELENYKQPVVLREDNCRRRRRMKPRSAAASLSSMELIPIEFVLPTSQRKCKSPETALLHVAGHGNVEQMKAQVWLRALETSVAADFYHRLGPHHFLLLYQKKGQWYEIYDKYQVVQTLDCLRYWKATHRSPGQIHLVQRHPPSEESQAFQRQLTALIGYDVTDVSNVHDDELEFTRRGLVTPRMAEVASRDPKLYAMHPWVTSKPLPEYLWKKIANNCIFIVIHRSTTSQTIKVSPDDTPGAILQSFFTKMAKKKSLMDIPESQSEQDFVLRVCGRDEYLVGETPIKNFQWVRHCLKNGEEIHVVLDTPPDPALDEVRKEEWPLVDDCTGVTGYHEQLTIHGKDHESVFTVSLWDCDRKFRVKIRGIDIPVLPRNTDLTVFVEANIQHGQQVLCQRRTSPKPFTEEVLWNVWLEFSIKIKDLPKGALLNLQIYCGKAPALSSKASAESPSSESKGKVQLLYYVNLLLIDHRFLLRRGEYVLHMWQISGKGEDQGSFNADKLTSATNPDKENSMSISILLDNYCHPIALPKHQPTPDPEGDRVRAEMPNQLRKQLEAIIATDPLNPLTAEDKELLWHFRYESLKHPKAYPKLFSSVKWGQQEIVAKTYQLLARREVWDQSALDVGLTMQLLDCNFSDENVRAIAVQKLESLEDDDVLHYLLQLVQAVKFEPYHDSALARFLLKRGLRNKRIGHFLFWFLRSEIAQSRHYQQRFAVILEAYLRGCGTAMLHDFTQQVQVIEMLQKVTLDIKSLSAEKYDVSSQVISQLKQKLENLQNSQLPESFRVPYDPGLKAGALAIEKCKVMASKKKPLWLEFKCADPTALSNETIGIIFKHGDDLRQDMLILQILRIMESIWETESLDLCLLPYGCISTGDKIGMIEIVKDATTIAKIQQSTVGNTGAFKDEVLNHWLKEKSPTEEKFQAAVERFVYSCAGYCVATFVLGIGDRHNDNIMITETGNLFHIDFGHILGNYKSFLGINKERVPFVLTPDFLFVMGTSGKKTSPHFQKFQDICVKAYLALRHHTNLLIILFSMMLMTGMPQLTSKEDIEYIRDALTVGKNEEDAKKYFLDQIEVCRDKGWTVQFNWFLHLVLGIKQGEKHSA
Chain of PIK3CB (Human) (P42338 whole entry, looked up): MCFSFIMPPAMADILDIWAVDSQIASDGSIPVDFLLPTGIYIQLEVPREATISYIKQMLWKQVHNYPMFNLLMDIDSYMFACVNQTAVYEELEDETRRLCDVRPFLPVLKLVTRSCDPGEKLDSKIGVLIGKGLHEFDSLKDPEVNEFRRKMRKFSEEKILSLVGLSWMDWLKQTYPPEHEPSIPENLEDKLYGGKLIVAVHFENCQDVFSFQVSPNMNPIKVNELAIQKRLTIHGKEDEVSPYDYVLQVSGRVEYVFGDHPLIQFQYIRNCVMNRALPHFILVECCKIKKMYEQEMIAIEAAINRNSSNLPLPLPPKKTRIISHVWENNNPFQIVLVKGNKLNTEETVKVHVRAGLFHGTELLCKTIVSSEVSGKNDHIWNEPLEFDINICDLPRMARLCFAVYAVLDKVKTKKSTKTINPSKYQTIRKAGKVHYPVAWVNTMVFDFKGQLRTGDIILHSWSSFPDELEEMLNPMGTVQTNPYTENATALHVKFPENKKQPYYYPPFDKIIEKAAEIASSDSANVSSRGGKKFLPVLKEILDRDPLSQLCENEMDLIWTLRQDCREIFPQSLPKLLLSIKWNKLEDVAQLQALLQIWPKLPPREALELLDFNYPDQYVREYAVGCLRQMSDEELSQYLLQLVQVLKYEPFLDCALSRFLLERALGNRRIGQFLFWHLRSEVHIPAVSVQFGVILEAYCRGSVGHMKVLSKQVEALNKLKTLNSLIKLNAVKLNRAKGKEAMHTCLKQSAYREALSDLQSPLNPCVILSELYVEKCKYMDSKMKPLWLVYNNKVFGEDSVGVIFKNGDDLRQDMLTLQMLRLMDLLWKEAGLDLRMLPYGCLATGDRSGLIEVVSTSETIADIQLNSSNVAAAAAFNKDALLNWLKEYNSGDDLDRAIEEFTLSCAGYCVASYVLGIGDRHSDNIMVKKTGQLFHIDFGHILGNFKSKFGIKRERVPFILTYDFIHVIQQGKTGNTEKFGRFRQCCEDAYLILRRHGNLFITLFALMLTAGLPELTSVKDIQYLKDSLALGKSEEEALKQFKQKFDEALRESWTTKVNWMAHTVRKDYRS

| Structure (SMILES) | IC50 [1] | IC50 [2] | IC50 [3] [nM] | IC50 [4] [nM] |
| --- | --- | --- | --- | --- |
| Cc1cc(C(C)Nc2ccccc2)c2nc(N3CCOCC3)cc(=O)n2c1 (stereo unspecified) | 5000 nM and 784 nM | 3500 nM and 3240 nM |  |  |
| CC(=O)Nc1cccc(-c2nc(N3CCOCC3)c3oc4ncccc4c3n2)c1 | 301 nM | 9070 nM | 2650 | 333 |

Reference: the Kinase Knowledgebase extract (Sharma et al. 2016)
